Entries after “also recorded” stand apart in the source; their conditions may differ.
Experiments:
[1] = system: HCT-116-APC(WT)+ch3 cells; assay: SRB cytotoxicity assay, MMR-proficient cells; assay type: cell-based, human
Procedure: (§1) FIGS. 24A and 24D NSC-124854 enhanced the cytotoxicity of TMZ in both MMR-positive and MMR-negative colon cancer cell lines in culture. […] After 48 hours, cells were harvested and processed for cytotoxicity determination. Data presented are the mean±SE of three different estimations.
(§2) The IC50 (the drug concentration needed to prevent cell proliferation by 50%) of TMZ was determined using a sulforhodamine B (SRB) colorimetric assay. This assay relies on the ability of SRB to bind the protein components of cells that have been fixed to tissue culture plates by trichloroacetic acid (TCA) (Vachai V, Kirtikara K. Sulforhodamine B colorimetric assay for cytotoxicity screening. Nat. Proto. 3: […], 2006). Briefly, the HCT-116(APC^+/+) and HCT-116(APC^−/−) were seeded in 96-well plates at a density of 500 cells per well. After 24 hours, while the cells were in the log phase of cell growth, the cells were treated with different concentrations of TMZ for 48 hours. The cells were subsequently fixed with 10% (w/v) of tricholoroacetic acid, washed with double distilled water, and stained with 0.4% SRB. Cells were then repeatedly washed with 1% (v/v) of acetic acid to remove the unbound dye. The protein bound dye was dissolved in 10 mM Tris-base solution (pH 10.5). The developed color was measured at 564 nm. The percentage of cell survival as a function of drug concentration was then plotted to determine the IC50 value. The IC50 of TMZ in HCT-116(APC^+/+) and HCT-116(APC^−/−) cells was 200 and 400 μM, respectively (FIG. 18A). […] This is consistent with the hypothesis that APC-mediated blockage of base excision repair increase d the sensitivity to TMZ in APC^+/+ cells. SRB assays were then used to determine whether TMZ-induced cytotoxicity was correlative to the increased level of APC in HCT-116(APC^+/+) cells.

SW480 cells = assay: SRB cytotoxicity assay, MMR-proficient cells; assay type: cell-based, human
Procedure: as §1, §2

[2] = system: HCT-116(APC+/+) and HCT-116(APC−/−) colon cancer cell lines; assay: SRB cytotoxicity of the compounds alone (FIGS. 19E and F); assay type: cell-based, human; conditions: up to 100 μM concentrations
Procedure: After 48 hours, cells were harvested and processed for cytotoxicity determination as described herein. […] Data are the mean±SE of three different estimations.
(§3) The IC50 (the drug concentration needed to prevent cell proliferation by 50%) of TMZ was determined using a sulforhodamine B (SRB) colorimetric assay. This assay relies on the ability of SRB to bind the protein components of cells that have been fixed to tissue culture plates by trichloroacetic acid (TCA) (Vachai V, Kirtikara K. Sulforhodamine B colorimetric assay for cytotoxicity screening. Nat. Proto. 3: […], 2006). Briefly, the HCT-116(APC^+/+) and HCT-116(APC^−/−) were seeded in 96-well plates at a density of 500 cells per well. After 24 hours, while the cells were in the log phase of cell growth, the cells were treated with different concentrations of TMZ for 48 hours. The cells were subsequently fixed with 10% (w/v) of tricholoroacetic acid, washed with double distilled water, and stained with 0.4% SRB. Cells were then repeatedly washed with 1% (v/v) of acetic acid to remove the unbound dye. The protein bound dye was dissolved in 10 mM Tris-base solution (pH 10.5). The developed color was measured at 564 nm. […]
APC blocked base excision repair and sensitized colon cancer cells after TMZ treatment. […] The cellular toxicity was determined by sulforhodamine B (SRB) colorimetric assay as described above. […]

pol-β [3] = target: T1, pol-β (Homo sapiens, UniProt P06746); assay: in vitro SN- and LP-BER assay with 32P-U-DNA; assay type: biochemical; conditions: for complete repair of 32P-U-DNA by the SN-BER pathway: absence of Fen-1, DNA ligase I; for complete repair of 32P-U-DNA by the LP-BER pathway: presence of Fen-1, DNA ligase I
T1 construct: made in house; host or cells: Escherichia coli BL21(DE3)pLysS

pol-β [4] = target: T1, pol-β; assay: dRP-lyase activity assay; assay type: biochemical; conditions: 1 nM pol-βwt; various concentrations of test substance
HCT-116(APC−/−) cells = assay: sulforhodamine B (SRB) colorimetric cytotoxicity assay; assay type: cell-based, human; conditions: for effect on the cytotoxicity of TMZ: 2 hours pretreatment, then TMZ 48 hours
Procedure: as §2
(§4) APC blocked base excision repair and sensitized colon cancer cells after TMZ treatment. […] The cellular toxicity was determined by sulforhodamine B (SRB) colorimetric assay as described above. […] The cytotoxicity of these compounds was greater in HCT-116(APC^+/+) cells than in HCT-116(APC^−/−) cells (FIG. 19, compare the results of Panel A with B and C with D, respectively).

HCT-116(APC+/+) cells = assay: as above; assay type: cell-based, human; conditions: for effect on the cytotoxicity of TMZ: 2 hours pretreatment, then TMZ 48 hours
Procedure: as §2, §4

pol-β [5] = target: T1, pol-β; assay: strand-displacement synthesis, reconstituted in vitro base excision repair assay with 32P-F-DNA; assay type: biochemical; conditions: for pol-β-directed strand-displacement synthesis: different concentrations; for pol-β-directed single-nucleotide incorporation: all the concentrations tested
CACO-2 cells = assay: SRB cytotoxicity assay, MMR-deficient cells; assay type: cell-based; conditions: Homo sapiens; CACO-2, TMZ alone, 48 hours
Procedure: (§5) FIGS. 24A and 24D NSC-124854 enhanced the cytotoxicity of TMZ in both MMR-positive and MMR-negative colon cancer cell lines in culture. MMR-proficient [HCT-116-APC(WT)+ch3 and SW480 (Panel 24A and […])] and MMR-deficient [CACO-2 and LoVo (Panel 24C and 24D)] cells were pretreated for 2 hours with 50 μM of NSC-124854 followed by the treatment with different concentrations of TMZ. After 48 hours, cells were harvested and processed for cytotoxicity determination. Data presented are the mean±SE of three different estimations.
as §3, with “SRB.” for “SRB. Cells were then repeatedly washed with 1% (v/v) of acetic acid to remove the unbound dye. The protein bound dye was dissolved in 10 mM Tris-base solution (pH 10.5). The developed color was measured at 564 nm.”

LoVo cells = assay: SRB cytotoxicity assay, MMR-deficient cells; assay type: cell-based; conditions: Homo sapiens, TMZ alone, 48 hours
Procedure: as §5
as §3, with “SRB.” for “SRB. Cells were then repeatedly washed with 1% (v/v) of acetic acid to remove the unbound dye. The protein bound dye was dissolved in 10 mM Tris-base solution (pH 10.5). The developed color was measured at 564 nm.”

pol-β [6] = target: T1, pol-β; assay: long patch-base excision repair assay with 32P-F-DNA; assay type: biochemical; conditions: pol-βwt, Fen-1, DNA ligase I; 2 μM APCwt peptide
Procedure: To determine whether the blockage in the strand-displacement synthesis by the pol-βMut-1 was sufficient to block long patch-base excision repair, a long patch-base excision repair assay was set up as outlined in FIG. 10A. […] This DNA repair was blocked in the presence of 2 μM APCwt peptide, but not with APC(I-A,Y-A) peptide (FIG. 10B, compare lane 5 with 8 for APCwt and with 9-11 for APC(I-A,Y-A), respectively, for the formation of the 63-mer ligated product). […] The 2-nucleotide strand-displacement synthesis by pol-βMut-1 protein was sufficient to carry out long patch-base excision repair in the presence of Fen-1.
To study long patch- and single nucleotide-base excision repair activities, different types of DNA substrates were used. For long patch-base excision repair activity, an AP-site analog (3-hydroxy-2-hydroxymethyltetrahydrofuran, noted as F) was introduced at the 24th position of the 63-mer DNA (5′-[…] CGACA-3′ (SEQ ID NOS 17-18)), which was called F-DNA (27). For making U-DNA, uracil was introduced at the 24th position of 63-mer sense oligonucleotide (5′-[…] GACA-3′ (SEQ ID NO: 19)). Sense strands of F-DNA and U-DNA were 5′-end labeled by [a-^32P]ATP and T4 polynucleotide kinase and purified with a nick-column (GE Healthcare, Piscataway, N.J.). Later they were annealed with the complementary 63-mer oligonucleotide (5′-[…] CTAG-3′ (SEQ ID NO: 20)) at a 1:1 molar ratio. […]

[7] = 32P-U-DNA substrate, dose-dependent

## NC1=NC(=O)N(C2CC(O)C(COP(=O)(O)O)O2)C(I)C1 (centres unmarked) [NSC-124854]
[1]; HCT-116-APC(WT)+ch3, combination of 50 μM of NSC-124584
  reduction of the IC50 of TMZ: 2.5 fold
SW480 cells; SW480, combination of 50 μM of NSC-124584
  reduction of the IC50 of TMZ: 2.5 fold
[2]
  cytotoxicity of the compound alone: very low
pol-β [3]; [7]
  Pol-β-mediated 1-nt incorporation: blocked
  strand-displacement synthesis in the presence of Fen-1: blocked
pol-β [3]
  complete repair of 32P-U-DNA by the SN-BER pathway: blocked in a dose-dependent manner
  complete repair of 32P-U-DNA by the LP-BER pathway: blocked in a dose-dependent manner
pol-β [4]
  pol-β-directed dRP-lyase activity: successfully blocked
HCT-116(APC−/−) cells
  effect on the cytotoxicity of TMZ: increased
HCT-116(APC+/+) cells; HCT-116(APC+/+)
  effect on the cytotoxicity of TMZ: increased
pol-β [5]; 32P-F-DNA substrate
  DNA synthesis (1-nt and strand-displacement) of pol-β: completely blocked
  pol-β-directed strand-displacement synthesis: dose-dependent decrease
pol-β [5]; inhibited at lower concentrations
  potency among the four compounds tested, strand-displacement synthesis: most potent

## Cn1nnc2c(C(N)=O)ncn2c1=O [TMZ, Temozolomide, reference compound]
[1]; Homo sapiens, HCT-116-APC(WT)+ch3, TMZ alone, 48 hours
  IC50: 100 µM
SW480 cells; Homo sapiens, SW480, TMZ alone, 48 hours
  IC50: 120 µM
CACO-2 cells
  IC50: 364 µM
LoVo cells
  IC50: 677 µM
HCT-116(APC−/−) cells; Homo sapiens, 48 hours, SRB, read-out: IC50 of TMZ
  IC50: 400 µM
HCT-116(APC+/+) cells; Homo sapiens, HCT-116(APC+/+), 48 hours, SRB, read-out: IC50 of TMZ
  IC50: 200 µM
HCT-116(APC+/+) cells; ratio of IC50
  sensitivity to TMZ of HCT-116(APC+/+) versus HCT-116(APC−/−) cells: 2 times

## Cc1cc(S(=O)(=O)Nc2n[nH]c(Nc3ccc(Cl)cc3)n2)c(S)cc1Cl [NSC-666715]
[2]
  cytotoxicity of the compound alone: very low
HCT-116(APC−/−) cells
  effect on the cytotoxicity of TMZ: increased
HCT-116(APC+/+) cells; HCT-116(APC+/+)
  effect on the cytotoxicity of TMZ: increased

## APCwt: wild-type APC peptide of 20 amino acids, 1250-KVSSINQETIQTYCVEDTPI-1269, DNA repair inhibitory (DRI)-domain (UniProt P25054 1250-1269, looked up, fragment)
pol-β [6]
  complete DNA repair of F-DNA (63-mer ligated product), LP-BER: blocked
pol-β [3]
  complete repair of 32P-U-DNA by the SN-BER pathway: blocked
  complete repair of 32P-U-DNA by the LP-BER pathway: blocked
pol-β [4]
  pol-β-directed dRP-lyase activity: blocked
pol-β [5]; 32P-F-DNA substrate
  pol-β-directed single-nucleotide incorporation: unaffected
  pol-β-directed strand-displacement synthesis: dose-dependent decrease; also recorded: blocked

## O=C(O)CC(C(=O)O)C(CC(=O)O)C(=O)O (centres unmarked) [CN3]
pol-β [4]
  pol-β-directed dRP-lyase activity: did not inhibit
pol-β [5]; 32P-F-DNA substrate
  pol-β-directed single-nucleotide incorporation: unaffected
  pol-β-directed strand-displacement synthesis: dose-dependent decrease

## APC(I-A,Y-A): mutant APC peptide 1250-KVSSINQETAQTACVEDTPI-1269, Ile1259 and Tyr1262 replaced with alanine (UniProt P25054 1250-1269, looked up, variant I1259A Y1262A) [reference compound]
pol-β [6]
  complete DNA repair of F-DNA (63-mer ligated product), LP-BER: not
pol-β [3]
  complete repair of 32P-U-DNA by the SN-BER pathway: not
  complete repair of 32P-U-DNA by the LP-BER pathway: not
pol-β [4]
  pol-β-directed dRP-lyase activity: did not show any effect
pol-β [5]; 32P-F-DNA substrate
  pol-β-directed single-nucleotide incorporation: unaffected
  pol-β-directed strand-displacement synthesis: not
